Assays:
Assay in all cases: Bliss excess, mean over the matrix (fraction); higher = more synergy
[1] = test system: HGC-27 (Gastric Carcinoma)
Method in brief: (§1)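 Cell lines grown in DMEM/F12 or RPMI with 10% FBS were plated in 1536-well plates and held 24 hours at 37°C, 5% CO2 before 72 hours of exposure to two-drug dose matrices, with DMSO typically at 0.2%. CellTiter-Glo 2.0 luminescence gave viability, which was converted to inhibition. Vehicle wells were set to 0 and blank wells to 1. Combination Emax is the second-highest inhibition in the matrix, and Bliss excess is the observed combination effect minus the expected EA + EB − EA·EB, where EA and EB are the single-agent effects.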

[2] = test system: HSC-4 (Oral Cavity Carcinoma)
Method in brief: as §1

[3] = test system: NEC8 (Other Solid Carcinomas)
Method in brief: as §1

PWR-1E (Non-Cancerous) = test system: PWR-1E (Non-Cancerous)
Method in brief: as §1

| SMILES | Bliss excess [1] | Bliss excess [2] | Bliss excess [3] | Bliss excess (PWR-1E (Non-Cancerous)) |
| --- | --- | --- | --- | --- |
| CN(CCO)CC[C@H](CSc1ccccc1)Nc1ccc(S(=O)(=O)NC(=O)c2ccc(N3CCC([C@@H](O)c4ccccc4-c4ccc(Cl)cc4)CC3)cc2)cc1S(=O)(=O)C(F)(F)F [AZD4320] + CCN(CCO)CCCOc1ccc2c(Nc3cc(CC(=O)Nc4cccc(F)c4)[nH]n3)ncnc2c1 [AZD2811] (first compound max 1 µM, 7x7, partner max 1 µM) | 0.032 | -0.0335 | -0.0138 | 0.0514 |
| COc1cc2ncnc(Nc3ccc(F)c(Cl)c3)c2cc1OCCCN1CCOCC1 [Gefitinib] + CC(C)n1c(=O)n(C)c2cnc3cc(F)c(-c4ccc(OCCCN5CCCCC5)nc4)cc3c21 [AZD1390] (first compound max 10 µM, 7x7, partner max 0.3 µM) | -0.0261 | -0.0847 | -0.0278 | -0.0234 |
| COc1cc2c(cc1OCCCCCOc1cc3c(cc1OC)C(=O)N1C=C(C)C[C@H]1C=N3)N=C[C@@H]1CC(C)=CN1C2=O [SG3199] + O=C(c1cc(Cc2n[nH]c(=O)c3ccccc23)ccc1F)N1CCN(C(=O)C2CC2)CC1 [Olaparib] (first compound max 0.001 µM, 7x7, partner max 10 µM) | 0.0358 | -0.046 | 0.0376 | -0.0258 |
| Cc1cc2ncnn2cc1Nc1ncc2c(n1)n(C1CCOCC1)c(=O)n2C [AZD7648] + C[C@@H]1COCCN1C2=NC(=NC(=C2)C3(CC3)[S@](=N)(=O)C)C4=C5C=CNC5=NC=C4 [AZD6738] (first compound max 10 µM, 7x7, partner max 10 µM) | -0.0265 | -0.0165 | 0.0119 | -0.109 |
| CN(CCO)CC[C@H](CSc1ccccc1)Nc1ccc(S(=O)(=O)NC(=O)c2ccc(N3CCC([C@@H](O)c4ccccc4-c4ccc(Cl)cc4)CC3)cc2)cc1S(=O)(=O)C(F)(F)F [AZD4320] + C=CCn1c(=O)c2cnc(Nc3ccc(N4CCN(C)CC4)cc3)nc2n1-c1cccc(C(C)(C)O)n1 [AZD1775] (first compound max 1 µM, partner max 1 µM) | -0.018 | 0.023 | 0.0272 | -0.0111 |
| CN(CCO)CC[C@H](CSc1ccccc1)Nc1ccc(S(=O)(=O)NC(=O)c2ccc(N3CCC([C@@H](O)c4ccccc4-c4ccc(Cl)cc4)CC3)cc2)cc1S(=O)(=O)C(F)(F)F [AZD4320] + Cn1cnc2c(F)c(Nc3ccc(Br)cc3Cl)c(C(=O)NOCCO)cc21 [Selumetinib] (first compound max 1 µM, 7x7, partner max 3 µM) | 0.0579 | 0.0732 | 0.021 | 0.0024 |
| CN(CCO)CC[C@H](CSc1ccccc1)Nc1ccc(S(=O)(=O)NC(=O)c2ccc(N3CCC([C@@H](O)c4ccccc4-c4ccc(Cl)cc4)CC3)cc2)cc1S(=O)(=O)C(F)(F)F [AZD4320] + C1CN(CCC1(C(=O)N[C@@H](CCO)C2=CC=C(C=C2)Cl)N)C3=NC=NC4=C3C=CN4 [Capivasertib] (first compound max 1 µM, 7x7, partner max 3 µM) | -0.0252 | -0.0269 | -0.0356 | -0.0067 |
| C[C@@H](c1ccc2nccn2c1)n1nnc2ncc(-c3cnn(C)c3)nc21 [Savolitinib] + Cc1c2c(nn1C)CSCc1cc(n(C)n1)CSc1cc(c3ccccc3c1)OCCCc1c(C(=O)O)n(C)c3c-2c(Cl)ccc13 [AZD5991] (first compound max 1 µM, 7x7, partner max 1 µM) | 0.0154 | -0.0864 | -0.0093 | -0.0664 |
| CN(CCO)CC[C@H](CSc1ccccc1)Nc1ccc(S(=O)(=O)NC(=O)c2ccc(N3CCC([C@@H](O)c4ccccc4-c4ccc(Cl)cc4)CC3)cc2)cc1S(=O)(=O)C(F)(F)F [AZD4320] + C[C@@H]1COCCN1C2=NC(=NC(=C2)C3(CC3)[S@](=N)(=O)C)C4=C5C=CNC5=NC=C4 [AZD6738] (first compound max 1 µM, 7x7, partner max 10 µM) | -0.0321 | 0.12 | -0.0089 | -0.0313 |
| C[C@@H](c1ccc2nccn2c1)n1nnc2ncc(-c3cnn(C)c3)nc21 [Savolitinib] + CC1(C)CCC(CN2CCN(c3ccc(C(=O)NS(=O)(=O)c4ccc(NCC5CCOCC5)c([N+](=O)[O-])c4)c(Oc4cnc5[nH]ccc5c4)c3)CC2)=C(c2ccc(Cl)cc2)C1 [Venetoclax] (first compound max 1 µM, 7x7, partner max 1 µM) | -0.0158 | -0.0776 | -0.0236 | -0.034 |
| Cc1cc2ncnn2cc1Nc1ncc2c(n1)n(C1CCOCC1)c(=O)n2C [AZD7648] + O=C(c1cc(Cc2n[nH]c(=O)c3ccccc23)ccc1F)N1CCN(C(=O)C2CC2)CC1 [Olaparib] (first compound max 10 µM, 7x7, partner max 10 µM) | -0.0092 | -0.0448 | 0.0327 | -0.0005 |
| Cc1cc2ncnn2cc1Nc1ncc2c(n1)n(C1CCOCC1)c(=O)n2C [AZD7648] + C=CCn1c(=O)c2cnc(Nc3ccc(N4CCN(C)CC4)cc3)nc2n1-c1cccc(C(C)(C)O)n1 [AZD1775] (first compound max 10 µM, partner max 1 µM) | -0.012 | -0.0082 | 0.0004 | 0.0256 |
| Cc1cc2ncnn2cc1Nc1ncc2c(n1)n(C1CCOCC1)c(=O)n2C [AZD7648] + CN(C)CCCOc1ccc(-c2ccc3ncc4c(c3c2)n(C2CCOCC2)c(=O)n4C)cn1 [AZD0156] (first compound max 10 µM, 7x7, partner max 1 µM) | 0.0101 | -0.0154 | -0.0007 | 0.0532 |
| Cc1nc(Nc2ncc(C(=O)Nc3c(C)cccc3Cl)s2)cc(N2CCN(CCO)CC2)n1 [Dasatinib] + CC(=O)Nc1cccc(-n2c(=O)n(C3CC3)c(=O)c3c(Nc4ccc(I)cc4F)n(C)c(=O)c(C)c32)c1 [Trametinib] (first compound max 2 µM, 7x7, partner max 1 µM) | -0.0355 | -0.0681 | -0.0277 | 0.0481 |
| Cc1cc2ncnn2cc1Nc1ncc2c(n1)n(C1CCOCC1)c(=O)n2C [AZD7648] + CCN(CCO)CCCOc1ccc2c(Nc3cc(CC(=O)Nc4cccc(F)c4)[nH]n3)ncnc2c1 [AZD2811] (first compound max 10 µM, 7x7, partner max 1 µM) | -0.0685 | 0.0036 | -0.0082 | 0.0299 |
| CN(CCO)CC[C@H](CSc1ccccc1)Nc1ccc(S(=O)(=O)NC(=O)c2ccc(N3CCC([C@@H](O)c4ccccc4-c4ccc(Cl)cc4)CC3)cc2)cc1S(=O)(=O)C(F)(F)F [AZD4320] + Cc1cc2ncnn2cc1Nc1ncc2c(n1)n(C1CCOCC1)c(=O)n2C [AZD7648] (first compound max 1 µM, 7x7, partner max 10 µM) | -0.0473 | -0.0592 | 0.0104 | -0.0352 |
| CN(CCO)CC[C@H](CSc1ccccc1)Nc1ccc(S(=O)(=O)NC(=O)c2ccc(N3CCC([C@@H](O)c4ccccc4-c4ccc(Cl)cc4)CC3)cc2)cc1S(=O)(=O)C(F)(F)F [AZD4320] + C[C@@H](Nc1cc(F)cc(F)c1)c1cc(C(=O)N(C)C)cc2c(=O)cc(N3CCOCC3)oc12 [AZD8186] (first compound max 1 µM, 7x7, partner max 3 µM) | -0.0272 | -0.12 | 0.0171 | -0.0097 |

Reference: the supplement of paper PMC11061612
